Measured values published in patent US20040058989A1, “Pharmaceutical composition containing citalopram” (H. Lundbeck A/S, priority 2001, published 2004).

Experiment: Particle size distribution by laser diffraction (Sympatec Helos)
Format: physicochemical
Experimental: As used herein, “particle size distribution” means the distribution of equivalent spherical diameters as determined by laser diffraction in a Sympatec Helos equipment. The particle size distributions for fillers and uncompacted citalopram are determined at 1 bar dispersive pressure, whereas the particle size distributions for compacted granulates are determined at 0.2 bar dispersive pressure in order to avoid deaggregation of the granules leading to erroneous results. “Median particle size”, correspondingly, means the median of said particle size distribution.

[1] = Sympatec Helos, 1 bar dispersive pressure for fillers and uncompacted citalopram, 0.2 bar for compacted granulates

- Particle size distribution, quantile 10% [1]: 1.2 μm
- Particle size distribution, quantile 50% (median particle size) [1]: 14.0 μm
- Particle size distribution, quantile 90% [1]: 72.3 μm
- Particle size distribution, quantile 95% [1]: 97.0 μm
- Particle size (product of the process used for preparation of citalopram hydrobromide, general statement): 2-20 μm
SMILES: CN(C)CCCC1(c2ccc(F)cc2)OCc2cc(C#N)ccc21 (centres unmarked) [Citalopram HBr]
